In publication PMC12455130, “Multifunctional molecular agent for tau-targeted combinational therapy of Alzheimer’s disease” (The Journal of Biological Chemistry, 2025):

Tests used:
[1] = target: T1, R3 fibrils (Homo sapiens, UniProt P10636); assay: TEM of heparin-induced R3 fibrils; assay type: biochemical
T1 construct: R3 (^306VQIVYK PVDLSK VTSKCG SLGNIH HKPGGG Q^336) and rabbit anti-tau antibody were purchased from MuJin; purchased MuJin
Experimental: To further confirm the inhibitory efficiency of 4GA and 2GA on R3 fibril formation, the morphology of heparin-induced R3 aggregates at different conditions was characterized by transmission electron microscopy (TEM) (Fig. 4C). After incubation, the mature fibrils of R3 were interweaved and serried in the absence of 4GA or 2GA (0 μM).
(§1) For detecting the inhibitory efficiency of inhibitors, 15 μM R3, 3.8 μM heparin, and 4GA/2GA/4ME/GA (0, 10, and 40 μM) in 50 mM Tris–HCl buffer (pH 7.4) was incubated at 37 °C for 3 h, respectively. For exploring the effect of Cu^2+ on R3 aggregation, 15 μM R3, 3.8 μM heparin was mixed in the presence or the absence of 3.8 μM Cu^2+ in 50 mM Hepes buffer (pH 7.4). Then, 10 μM 4GA/2GA/4ME/GA was added to the solution. After 3 h incubation, 10 μl of each solution was applied on a carbon support membrane, followed by 10 μl of 2% uranyl acetate, and dried at room temperature. The operation was carried out on transmission electron microscope (JEM-2100, provieded by JEOL).

[2] = target: T2, tau peptide R3 (Homo sapiens, UniProt P10636); assay: ThS assay, Cu2+-promoted heparin-induced R3 aggregation; assay type: biochemical; conditions: R3 15 μM, Cu2+ 3.8 μM, compound 10 μM, heparin 3.8 μM, 3 h
T2 construct: R3 (^306VQIVYK PVDLSK VTSKCG SLGNIH HKPGGG Q^336) and rabbit anti-tau antibody were purchased from MuJin; purchased MuJin
T2 sequence (P10636 623-653 limits assumed): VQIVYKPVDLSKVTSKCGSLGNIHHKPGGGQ
From the text: Metal ions, especially Cu^2+, are believed to be highly compatible with cysteine residues of tau peptide as a coordination center ([26]). Accompanied by the formation of intermolecular S–Cu–S bridging coordination bond, or intermolecular disulfide bond, these metal ions have been proven to promote tau aggregation ([27]). After confirming that 4GA and 2GA can effectively remove copper ions through coordination, we further explore their effects on R3 aggregation under the promotion of Cu^2+. […] Heparin was used to initiate the aggregation ([15]). […] As a comparison, the effects of the precursor compounds: 4ME, 3ME, 2ME, and 1ME, on Cu^2+-promoted R3 aggregation were also examined (Fig. S15).
Figure 5 Kinetic curves and TEM image of R3 aggregation with 4GA or 2GA.A, kinetic curves of the R3 (15 μM) aggregation monitored by ThS fluorescence assay in different conditions. B, ThS fluorescence intensity of R3 (15 μM) incubated for 3 h in different conditions. C, TEM image of R3 fibrils in different conditions. Negatively stained with uranyl acetate. Scale bar represents 200 nm. Final concentrations of R3, Cu^2+, and inhibitors are 15, 3.8, and 10 μM, respectively. All aggregations were initiated by heparin (3.8 μM). 2GA, (4,10-dimethyl-1,4,7,10-tetraazacyclododecane-1,7-diyl)bis((3,4,5-trihydroxyphenyl)methanone); 4GA, (1,4,7,10-tetraazacyclododecane-1,4,7,10-tetrayl)tetrakis((3,4,5-trihydroxyphenyl)methanone); TEM, transmission electron microscopy; ThS, thioflavin S.
The promotion of Cu^2+ on R3 aggregation was also inspected, similar to the aforementioned operation, unless that 3.8 μM Cu^2+ was also included, and using 50 mM Hepes (pH 7.4) as the buffer solution.
Fig. S15 ThS fluorescence intensity of R3 (15 µM) incubated for 3 h. Final concentrations of R3, Cu^2+, and compounds are 15, 3.8 and 10 µM, respectively. All aggregations were initiated by heparin (3.8 µM).

[3] = target: T1, R3 fibrils; assay: TEM of Cu2+-promoted R3 fibrils; assay type: biochemical; conditions: R3 15 μM, Cu2+ 3.8 μM, heparin 3.8 μM, compound 10 μM, Hepes pH 7.4
Experimental: However, the influence of 4ME or GA on Cu^2+-promoted R3 aggregation was small, because these compounds could only suppress Cu^2+ promotion effect; their effect on R3 self-aggregation was almost negligible.
as §1

[4] = test system: SK-N-SH cells; assay: Cell viability assay (CCK-8); assay type: cell-based; conditions: for SK-N-SH cells dead: 80 μM, 24 h incubation; for cytotoxicity (cell viability): SK-N-SH, concentration up to 40 μM
Experimental: However, we still face challenges to improve their therapeutic effects while reducing neurotoxicity. Therefore, a systematic investigation on the cytotoxicity of our new synthetic compounds was carried out. Herein, human neuroblastoma cells (SK-N-SH) were utilized for standard cell viability assay (Cell Counting Kit-8 [CCK-8] assay).
The human neuroblastoma cell (SK-N-SH) was obtained from the Chinese Academy of Sciences stem cell bank. Cells were maintained in Dulbecco’s modified Eagle’s medium (DMEM) supplemented with 10% fetal bovine serum (FBS), 100 U/ml penicillin G, and 100 μg/ml streptomycin at 37 °C in a humidified atmosphere containing 5% CO2.
Cells were plated in 96-well plate at a density of 1 × 10^4 in 100 μl medium per well for 24 h. Then, the FBS-free medium containing the tested compounds at different concentrations was used to replace the old medium. After 24 h incubation, 100 μl of FBS-free DMEM containing 10% CCK-8 was added into each well to replace the old medium. After 2 h incubation, the absorbance at 450 nm was measured by SpectraMax iD3 (Molecular Devices).

[5] = test system: SK-N-SH cells; assay: Intracellular ROS measurement (DCFH, flow cytometry and CLSM); assay type: cell-based, human; conditions: 15 μM R3, 3.8 μM Cu2+, 10 μM compound; for ROS in SK-N-SH cells generated by R3–Cu2+ complex (flow cytometry): 24 h
Experimental: The flow cytometry and confocal laser scanning microscopy (CLSM) were used to show the intracellular ROS production. […] Consequently, the reductive phenolic hydroxyl groups might be a key factor for scavenging ROS triggered by R3–Cu^2+ complex.
SK-N-SH cells were seeded on a 12-well plate at a density of 1 × 10^5/well and incubated at 37 °C for 24 h, followed by treating with 15 μM R3 in the presence or the absence of 3.8 μM Cu^2+ in FBS-free DMEM. Two hours later, 10 μM 4GA/2GA/4ME/GA was added to the medium, respectively. After 24 h, the culture medium was removed, and 10 μM DCFH diacetate in FBS-free DMEM was added and incubated for 45 min at 37 °C. Samples were washed three times with PBS, and 4% polyformaldehyde was added and fixed at room temperature for 20 min. Cells were observed under a CLSM. For quantitative analysis, cells were harvested and washed three times with ice-cold PBS and resuspended in PBS. The fluorescence intensity of DCFH was analyzed by flow cytometry (CytoFLEX LX).

T1 sequence (P10636 623-653 limits assumed): as above

Row | Structure (SMILES) | R3 fibril morphology (TEM) ([1]; 10 μM inhibitor) | ThS fluorescence intensity of R3 aggregation in the presence of Cu2+ [2] | morphology of Cu2+-promoted R3 fibrils (TEM) [3] | SK-N-SH cells dead [4] [%] | cytotoxicity (cell viability) ([4]; 24 h) | CLSM green fluorescence (intracellular ROS) [5] | ROS in SK-N-SH cells generated by R3–Cu2+ complex (flow cytometry) [5] | cytotoxicity (survival rate of SK-N-SH cells) ([4]; dose-dependent test, 24 h) | R3 fibril morphology (TEM) ([1]; even at high concentrations)
1 | CN1CCN(C(=O)c2cc(O)c(O)c(O)c2)CCN(C)CCN(C(=O)c2cc(O)c(O)c(O)c2)CC1 [2GA, (4,10-dimethyl-1,4,7,10-tetraazacyclododecane-1,7-diyl)bis((3,4,5-trihydroxyphenyl)methanone)] | smaller numbers of short R3 filaments | dropped dramatically, to a level lower than the case of R3 aggregation in the absence of Cu^2+ | the resulting filaments become sparse and small | 34.2 | insignificant cytotoxicity | almost disappeared | appreciably decreased, almost to the control level | – | –
2 | O=C(c1cc(O)c(O)c(O)c1)N1CCN(C(=O)c2cc(O)c(O)c(O)c2)CCN(C(=O)c2cc(O)c(O)c(O)c2)CCN(C(=O)c2cc(O)c(O)c(O)c2)CC1 [4GA, (1,4,7,10-tetraazacyclododecane-1,4,7,10-tetrayl)tetrakis((3,4,5-trihydroxyphenyl)methanone)] | smaller numbers of short R3 filaments | dropped dramatically, to a level lower than the case of R3 aggregation in the absence of Cu^2+ | the resulting filaments become sparse and small | 40.5 | insignificant cytotoxicity | almost disappeared | appreciably decreased, almost to the control level | – | –
3 | CN1CCN(C)CCN(C)CCN(C)CC1 [4ME, 1,4,7,10-tetramethyl-1,4,7,10-tetraazacyclododecane, reference compound] | – | only to a level close to the case of R3 aggregation in the absence of Cu^2+ | small | – | – | – | did not decrease | negligible | –
4 | O=C(O)c1cc(O)c(O)c(O)c1 [GA, gallic acid, reference compound] | – | – | small | – | – | almost disappeared | appreciably decreased, almost to the control level | – | could hardly change the number and length of R3 fibrils
